Laboratory results as given in paper PMC3485629, “Bioactivity comparison of extracts from various parts of common and tartary buckwheats: evaluation of the antioxidant- and angiotensin-converting enzyme inhibitory activities” (Chemistry Central Journal, 2012).

Biological target: T1, Angiotensin-converting enzymes from porcine kidneys (EC 3.4.15.1) (Sus scrofa, UniProt F1RRW5)
T1 construct: gene ACE; native enzyme from porcine kidney (Sigma), lyophilized
T1 sequence (F1RRW5 34-1309): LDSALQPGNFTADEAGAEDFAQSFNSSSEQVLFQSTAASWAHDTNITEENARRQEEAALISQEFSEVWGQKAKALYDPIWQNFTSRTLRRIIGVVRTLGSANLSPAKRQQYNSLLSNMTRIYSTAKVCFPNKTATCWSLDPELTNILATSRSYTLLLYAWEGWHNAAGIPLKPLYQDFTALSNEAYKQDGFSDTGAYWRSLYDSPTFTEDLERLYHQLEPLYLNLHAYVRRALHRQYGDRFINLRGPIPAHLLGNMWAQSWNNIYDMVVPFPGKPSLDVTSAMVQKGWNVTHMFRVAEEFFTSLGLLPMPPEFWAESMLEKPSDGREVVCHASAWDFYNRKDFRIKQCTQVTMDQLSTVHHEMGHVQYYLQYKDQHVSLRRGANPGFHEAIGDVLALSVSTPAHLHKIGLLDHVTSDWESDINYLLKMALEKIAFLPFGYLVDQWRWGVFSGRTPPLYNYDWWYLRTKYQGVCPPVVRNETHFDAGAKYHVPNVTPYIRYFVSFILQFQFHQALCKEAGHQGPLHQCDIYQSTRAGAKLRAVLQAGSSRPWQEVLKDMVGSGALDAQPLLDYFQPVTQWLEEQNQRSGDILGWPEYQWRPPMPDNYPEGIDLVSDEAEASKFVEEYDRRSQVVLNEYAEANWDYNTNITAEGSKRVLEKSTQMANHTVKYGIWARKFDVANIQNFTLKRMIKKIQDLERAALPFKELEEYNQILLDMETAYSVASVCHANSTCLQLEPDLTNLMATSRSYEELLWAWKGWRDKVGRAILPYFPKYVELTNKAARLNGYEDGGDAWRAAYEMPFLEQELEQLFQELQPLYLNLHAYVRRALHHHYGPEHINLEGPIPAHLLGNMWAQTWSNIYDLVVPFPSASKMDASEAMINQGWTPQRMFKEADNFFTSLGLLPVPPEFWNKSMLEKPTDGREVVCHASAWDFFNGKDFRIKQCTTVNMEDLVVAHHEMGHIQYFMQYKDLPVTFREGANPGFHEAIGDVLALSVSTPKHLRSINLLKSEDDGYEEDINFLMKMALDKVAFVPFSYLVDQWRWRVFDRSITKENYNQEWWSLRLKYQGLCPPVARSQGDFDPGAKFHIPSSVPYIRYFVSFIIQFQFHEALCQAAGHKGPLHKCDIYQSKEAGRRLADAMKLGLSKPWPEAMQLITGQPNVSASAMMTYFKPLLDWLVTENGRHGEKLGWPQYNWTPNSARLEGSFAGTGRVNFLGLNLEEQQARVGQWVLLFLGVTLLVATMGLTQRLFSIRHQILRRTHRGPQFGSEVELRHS
Test: microplate fluorometric assay, OPA detection of His-Leu
Type: biochemical
Conditions: read-out: IC50 (μg mL^-1) (converted)

- IC50: 129 µM
Compound: O=c1c(O)c(-c2ccc(O)c(O)c2)oc2cc(O)cc(O)c12 [quercetin]
